In ChEMBL document CHEMBL5291721, “A preclinical secondary pharmacology resource illuminates target-adverse drug reaction associations of marketed drugs” (Nat Commun, 2023):

Experiments:
[1] = molecular target: cGMP-inhibited 3',5'-cyclic phosphodiesterase 3A (Homo sapiens, UniProt Q14432); format: functional
Adenosine receptor A1 = molecular target: T1, Adenosine receptor A1 (Homo sapiens, UniProt P30542)
T1 sequence (P30542 whole entry): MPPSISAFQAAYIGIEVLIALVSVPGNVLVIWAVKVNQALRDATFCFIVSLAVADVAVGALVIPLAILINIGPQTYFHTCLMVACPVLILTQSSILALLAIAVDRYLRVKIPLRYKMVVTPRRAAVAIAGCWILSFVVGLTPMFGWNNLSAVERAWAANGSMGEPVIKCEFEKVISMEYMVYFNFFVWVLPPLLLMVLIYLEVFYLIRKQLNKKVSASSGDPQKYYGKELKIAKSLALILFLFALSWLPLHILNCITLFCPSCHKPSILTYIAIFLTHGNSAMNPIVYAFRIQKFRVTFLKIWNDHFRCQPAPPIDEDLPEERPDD

[2] = molecular target: Delta-type opioid receptor (Homo sapiens, UniProt P41143)
Sequence of Delta-type opioid receptor (P41143 whole entry): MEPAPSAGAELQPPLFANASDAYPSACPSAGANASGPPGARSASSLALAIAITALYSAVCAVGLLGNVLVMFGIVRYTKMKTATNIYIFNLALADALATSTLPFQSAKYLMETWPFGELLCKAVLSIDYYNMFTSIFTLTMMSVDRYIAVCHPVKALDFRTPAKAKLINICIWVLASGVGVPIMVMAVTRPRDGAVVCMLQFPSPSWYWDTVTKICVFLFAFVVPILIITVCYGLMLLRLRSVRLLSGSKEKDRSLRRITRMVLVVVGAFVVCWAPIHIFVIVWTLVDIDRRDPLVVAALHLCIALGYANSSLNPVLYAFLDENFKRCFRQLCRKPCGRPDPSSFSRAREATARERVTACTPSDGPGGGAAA

[3] = molecular target: Sodium-dependent dopamine transporter (Homo sapiens, UniProt Q01959)
Sequence of Sodium-dependent dopamine transporter (Q01959 whole entry): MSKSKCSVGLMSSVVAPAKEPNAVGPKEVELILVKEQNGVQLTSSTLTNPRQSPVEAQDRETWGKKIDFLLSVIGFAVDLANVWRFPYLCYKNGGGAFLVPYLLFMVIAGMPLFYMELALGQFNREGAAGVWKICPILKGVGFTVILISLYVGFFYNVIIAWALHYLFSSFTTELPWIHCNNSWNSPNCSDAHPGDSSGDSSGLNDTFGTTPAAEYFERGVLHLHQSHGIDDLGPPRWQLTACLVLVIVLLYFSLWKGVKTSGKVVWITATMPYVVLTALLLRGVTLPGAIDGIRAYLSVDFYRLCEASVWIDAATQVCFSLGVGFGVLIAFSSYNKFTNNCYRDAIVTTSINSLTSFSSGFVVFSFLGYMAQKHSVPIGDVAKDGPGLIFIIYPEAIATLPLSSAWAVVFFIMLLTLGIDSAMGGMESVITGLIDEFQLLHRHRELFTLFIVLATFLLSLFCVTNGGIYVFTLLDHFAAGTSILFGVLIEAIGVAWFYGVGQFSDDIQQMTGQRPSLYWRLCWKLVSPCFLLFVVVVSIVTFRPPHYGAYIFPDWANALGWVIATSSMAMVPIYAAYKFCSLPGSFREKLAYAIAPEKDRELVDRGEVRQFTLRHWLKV

[4] = molecular target: T2, Amine oxidase [flavin-containing] A (Homo sapiens, UniProt P21397); format: functional
T2 sequence (P21397 whole entry): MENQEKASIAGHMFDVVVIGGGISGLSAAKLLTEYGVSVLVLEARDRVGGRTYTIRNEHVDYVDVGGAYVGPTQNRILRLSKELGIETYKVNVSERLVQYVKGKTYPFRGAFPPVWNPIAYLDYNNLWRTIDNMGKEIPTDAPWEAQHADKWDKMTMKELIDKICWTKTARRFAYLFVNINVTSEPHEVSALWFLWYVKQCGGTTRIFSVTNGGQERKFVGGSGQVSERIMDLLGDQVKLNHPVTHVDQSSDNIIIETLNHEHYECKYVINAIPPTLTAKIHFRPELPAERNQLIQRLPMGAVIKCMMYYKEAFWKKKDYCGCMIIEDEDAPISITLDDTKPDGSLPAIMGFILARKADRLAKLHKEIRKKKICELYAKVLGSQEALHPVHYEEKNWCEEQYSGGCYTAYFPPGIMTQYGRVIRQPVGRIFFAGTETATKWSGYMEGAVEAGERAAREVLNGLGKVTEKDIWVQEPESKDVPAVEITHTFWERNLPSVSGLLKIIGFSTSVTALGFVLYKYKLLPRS

[5] = molecular target: T3, Equilibrative nucleoside transporter 1 (Homo sapiens, UniProt Q99808)
T3 sequence (Q99808 whole entry): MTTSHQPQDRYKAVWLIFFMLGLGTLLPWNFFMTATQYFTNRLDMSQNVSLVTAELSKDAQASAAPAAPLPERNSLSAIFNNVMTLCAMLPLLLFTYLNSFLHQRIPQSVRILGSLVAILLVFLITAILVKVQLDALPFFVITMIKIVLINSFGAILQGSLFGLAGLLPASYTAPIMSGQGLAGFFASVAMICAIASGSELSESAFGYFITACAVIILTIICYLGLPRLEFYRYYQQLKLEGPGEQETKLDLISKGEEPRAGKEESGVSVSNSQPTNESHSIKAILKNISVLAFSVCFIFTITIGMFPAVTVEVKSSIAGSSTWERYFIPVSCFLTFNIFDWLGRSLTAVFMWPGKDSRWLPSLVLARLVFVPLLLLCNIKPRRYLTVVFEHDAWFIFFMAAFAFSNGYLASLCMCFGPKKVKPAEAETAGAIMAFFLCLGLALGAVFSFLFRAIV

[6] = molecular target: T4, Prostaglandin G/H synthase 1 (Rattus norvegicus, UniProt Q63921); format: functional
T4 sequence (Q63921 whole entry): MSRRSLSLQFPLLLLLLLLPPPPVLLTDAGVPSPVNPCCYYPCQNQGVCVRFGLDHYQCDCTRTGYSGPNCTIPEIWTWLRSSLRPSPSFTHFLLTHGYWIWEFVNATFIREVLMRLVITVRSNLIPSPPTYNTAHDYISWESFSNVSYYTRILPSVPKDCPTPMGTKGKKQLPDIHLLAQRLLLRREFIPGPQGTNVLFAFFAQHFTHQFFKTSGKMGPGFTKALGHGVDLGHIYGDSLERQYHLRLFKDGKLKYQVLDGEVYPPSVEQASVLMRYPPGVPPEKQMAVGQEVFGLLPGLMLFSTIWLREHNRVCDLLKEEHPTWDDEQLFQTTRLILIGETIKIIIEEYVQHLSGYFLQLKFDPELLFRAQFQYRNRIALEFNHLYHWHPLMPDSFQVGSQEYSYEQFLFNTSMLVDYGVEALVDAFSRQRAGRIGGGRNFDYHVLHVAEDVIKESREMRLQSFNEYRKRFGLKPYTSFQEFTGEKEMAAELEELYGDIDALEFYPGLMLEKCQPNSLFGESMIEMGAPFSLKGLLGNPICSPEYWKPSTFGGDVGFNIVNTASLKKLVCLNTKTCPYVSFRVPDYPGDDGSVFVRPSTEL

Melanocortin receptor 3 = Melanocortin receptor 3 (Homo sapiens, UniProt P41968)
Sequence of Melanocortin receptor 3 (P41968 whole entry): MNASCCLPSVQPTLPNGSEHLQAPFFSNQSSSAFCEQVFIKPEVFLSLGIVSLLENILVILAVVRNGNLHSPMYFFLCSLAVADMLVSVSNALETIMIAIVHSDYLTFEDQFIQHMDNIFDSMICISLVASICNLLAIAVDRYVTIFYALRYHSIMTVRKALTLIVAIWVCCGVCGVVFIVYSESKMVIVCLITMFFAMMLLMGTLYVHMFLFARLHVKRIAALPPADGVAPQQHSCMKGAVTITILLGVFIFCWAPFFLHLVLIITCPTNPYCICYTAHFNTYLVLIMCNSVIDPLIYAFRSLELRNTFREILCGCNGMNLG

Vasopressin V2 receptor = Vasopressin V2 receptor (Homo sapiens, UniProt P30518)
Sequence of Vasopressin V2 receptor (P30518 whole entry): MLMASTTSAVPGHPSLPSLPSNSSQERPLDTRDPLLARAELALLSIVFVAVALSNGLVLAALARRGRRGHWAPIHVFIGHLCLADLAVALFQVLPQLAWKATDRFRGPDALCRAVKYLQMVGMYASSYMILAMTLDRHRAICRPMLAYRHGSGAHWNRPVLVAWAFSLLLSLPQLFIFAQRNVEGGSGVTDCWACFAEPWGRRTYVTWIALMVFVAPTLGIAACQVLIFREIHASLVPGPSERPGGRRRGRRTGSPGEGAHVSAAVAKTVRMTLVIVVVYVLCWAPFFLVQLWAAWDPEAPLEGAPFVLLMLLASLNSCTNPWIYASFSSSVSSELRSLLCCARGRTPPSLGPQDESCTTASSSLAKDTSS

[7] = molecular target: Glutamate receptor ionotropic, NMDA 1 (Rattus norvegicus, UniProt P35439)
[8] = molecular target: T5, 5-hydroxytryptamine receptor 2C (Homo sapiens, UniProt P28335)
T5 sequence (P28335 whole entry): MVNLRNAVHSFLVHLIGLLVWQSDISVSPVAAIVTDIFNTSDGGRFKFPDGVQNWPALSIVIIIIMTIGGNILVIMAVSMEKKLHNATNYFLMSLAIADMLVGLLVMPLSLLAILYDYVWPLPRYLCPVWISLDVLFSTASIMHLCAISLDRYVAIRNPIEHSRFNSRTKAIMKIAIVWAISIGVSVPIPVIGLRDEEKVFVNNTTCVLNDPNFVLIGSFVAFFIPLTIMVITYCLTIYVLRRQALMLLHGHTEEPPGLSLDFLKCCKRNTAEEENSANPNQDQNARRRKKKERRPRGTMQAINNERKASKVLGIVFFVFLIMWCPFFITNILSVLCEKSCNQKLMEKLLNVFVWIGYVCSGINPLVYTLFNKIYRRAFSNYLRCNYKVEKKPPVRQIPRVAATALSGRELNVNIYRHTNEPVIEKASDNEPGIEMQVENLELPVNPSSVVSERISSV
Further: assay procedure not described here.

Sequence of cGMP-inhibited 3',5'-cyclic phosphodiesterase 3A (Q14432 whole entry): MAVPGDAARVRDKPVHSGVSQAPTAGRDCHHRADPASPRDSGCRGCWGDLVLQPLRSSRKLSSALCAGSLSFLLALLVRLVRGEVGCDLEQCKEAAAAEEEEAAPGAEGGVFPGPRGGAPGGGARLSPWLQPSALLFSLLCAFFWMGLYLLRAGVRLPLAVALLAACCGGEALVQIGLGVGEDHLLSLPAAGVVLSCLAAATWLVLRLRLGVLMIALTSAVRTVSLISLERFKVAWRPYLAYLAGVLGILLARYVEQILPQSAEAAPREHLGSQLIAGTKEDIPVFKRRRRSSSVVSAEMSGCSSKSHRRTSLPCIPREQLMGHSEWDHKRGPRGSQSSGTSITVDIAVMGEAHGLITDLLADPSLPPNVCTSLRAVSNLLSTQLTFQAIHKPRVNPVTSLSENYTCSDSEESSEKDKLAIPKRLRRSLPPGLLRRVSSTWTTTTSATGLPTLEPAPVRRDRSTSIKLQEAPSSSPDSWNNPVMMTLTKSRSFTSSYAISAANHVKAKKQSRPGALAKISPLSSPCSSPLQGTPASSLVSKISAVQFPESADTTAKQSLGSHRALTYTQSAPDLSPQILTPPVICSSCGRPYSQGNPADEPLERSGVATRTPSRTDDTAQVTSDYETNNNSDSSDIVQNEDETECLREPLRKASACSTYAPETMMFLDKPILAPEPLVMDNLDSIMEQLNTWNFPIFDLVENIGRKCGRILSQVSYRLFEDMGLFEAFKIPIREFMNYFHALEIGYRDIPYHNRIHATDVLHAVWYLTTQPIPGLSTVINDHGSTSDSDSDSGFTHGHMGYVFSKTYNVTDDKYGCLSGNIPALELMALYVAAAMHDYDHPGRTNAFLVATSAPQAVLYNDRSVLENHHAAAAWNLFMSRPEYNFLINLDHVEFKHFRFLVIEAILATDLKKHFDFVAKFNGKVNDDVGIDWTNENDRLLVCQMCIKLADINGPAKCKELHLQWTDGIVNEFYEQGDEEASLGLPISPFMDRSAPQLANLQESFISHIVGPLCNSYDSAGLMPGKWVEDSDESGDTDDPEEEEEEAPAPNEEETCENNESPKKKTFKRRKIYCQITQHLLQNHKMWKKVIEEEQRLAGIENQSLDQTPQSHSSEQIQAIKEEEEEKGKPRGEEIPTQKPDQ

SMILES | AC50 [1] [µM] | AC50 (Adenosine receptor A1) [µM] | AC50 [2] [µM] | AC50 [3] [µM] | AC50 [4] [µM] | AC50 [5] [µM] | AC50 [6] [µM] | AC50 (Melanocortin receptor 3) [µM] | AC50 (Vasopressin V2 receptor) [µM] | AC50 [7] [µM] | AC50 [8] [µM]
CC1(C)S[C@@H]2[C@H](NC(=O)[C@H](N)c3ccccc3)C(=O)N2[C@H]1C(=O)OCOC(=O)[C@@H]1N2C(=O)C[C@H]2S(=O)(=O)C1(C)C [SULTAMICILLIN] | > 30 | > 30 | > 30 | > 30 | > 30 | > 30 | > 30 | > 30 | > 30 | > 30 | > 30
Nc1ncn([C@H]2C[C@H](O)[C@@H](CO)O2)c(=O)n1 [DECITABINE] | > 30 | > 30 | > 30 | > 30 | > 30 | > 30 | > 30 | > 30 | > 30 | > 30 | > 30
[H]/N=C(/N)N/C(=N/[H])NCCc1ccccc1 [PHENFORMIN] | 22 | > 30 | > 30 | 25.2 | > 30 | > 30 | > 30 | > 30 | > 30 | 2.32 | > 30
CCCN[C@H]1CCc2nc(N)sc2C1 [PRAMIPEXOLE] | > 30 | > 30 | > 30 | > 30 | > 10 | > 30 | > 30 | > 30 | > 30 | > 10 | > 30
CCOC(=O)C1=C[C@]2(CC)CCCN3CCc4c(n1c1ccccc41)[C@@H]32 [VINPOCETINE] | > 30 | 30 | > 30 | 21 | > 30 | > 30 | > 30 | > 30 | > 30 | > 30 | > 30
CC12CC3CC(C)(C1)CC(N)(C3)C2 [MEMANTINE] | > 30 | > 30 | > 30 | > 30 | > 10 | > 30 | > 30 | > 30 | > 30 |  | > 30
CC[C@@H]([C@H](C)O)n1ncn(-c2ccc(N3CCN(c4ccc(OC[C@@H]5CO[C@@](Cn6cncn6)(c6ccc(F)cc6F)C5)cc4)CC3)cc2)c1=O [POSACONAZOLE] | > 30 |  | > 30 | > 30 | > 30 |  | > 30 | > 30 |  |  | 
CCC(C)C(CC)C(N)=O (stereo not drawn) [VALNOCTAMIDE] | > 30 | > 30 | > 30 | > 30 | > 30 |  | > 30 | > 30 | > 30 | > 30 | > 30
Cc1cc(C(C)(C)C)cc(C)c1CC1=NCCN1 [XYLOMETAZOLINE] | > 30 | > 30 | > 30 | > 30 | > 30 |  | > 30 | > 30 | > 30 | > 30 | 10
OC1(c2ccc(Cl)cc2)c2ccccc2C2=NCCN21 (stereo not drawn) [MAZINDOL] | > 30 | > 30 | > 30 |  | > 30 | > 30 | > 30 | > 30 | > 30 | > 30 | > 30
CCC(C)C1(CC)C(=O)NC(=O)NC1=O (stereo not drawn) [BUTABARBITAL] | > 30 | > 30 |  | > 30 | > 30 | > 30 | > 30 | > 30 | > 30 |  | 
CC(=O)N[C@@H](CS)C(=O)O [ACETYLCYSTEINE] | > 30 | > 30 | > 30 | > 30 | > 30 | > 30 |  | > 30 | > 30 | > 30 | > 30
O=C(O)c1cn(C2CC2)c2cc(N3CCNCC3)c(F)cc2c1=O [CIPROFLOXACIN] | > 30 | > 30 |  |  |  | > 30 |  | > 30 | > 30 |  | 
Cc1cccc(N2CC(CO)OC2=O)c1 (stereo not drawn) [TOLOXATONE] | > 30 | > 30 |  | > 30 |  |  | > 30 | > 30 | > 30 | > 30 | > 30
O=[N+]([O-])c1ccc(O)c2ncccc12 [NITROXOLINE] | > 30 |  | 5.7 |  | > 30 |  |  |  |  | > 30 | 5.5
CNCc1ccc(-c2[nH]c3cc(F)cc4c3c2CCNC4=O)cc1 [RUCAPARIB] | > 30 | > 30 |  | > 30 | > 10 | > 30 | > 30 | > 30 | > 30 |  | 
CN(C)CCCNc1c2ccccc2nc2cccc([N+](=O)[O-])c12 [NITRACRINE] | > 30 | > 30 |  | > 30 | 19 |  | > 30 | > 30 | > 30 | > 30 | 2.7
Cc1cnc(C(=O)NCCc2ccc(S(=O)(=O)NC(=O)NC3CCCCC3)cc2)cn1 [GLIPIZIDE] | > 30 | > 30 | > 10 |  | > 10 | > 30 |  | > 30 | > 30 | > 10 | > 30
